# Results reported in the NIST ThermoML archive (doi:10.1021/acs.jced.8b00008).
# Numbers after ± are expanded uncertainties.
# Settings: 291.1 K, Pendant drop shape
row,SMILES,surface tension liquid-gas [mN/m]
1,CC1CCCCC1 [methylcyclohexane],23.7 ± 0.5

# Same assay, conditions: 293.15 K; 102 kPa; Liquid; Concentric cylinders viscometry
row,SMILES,viscosity [mPa·s]
1,CCC1CCCCC1 [ethylcyclohexane],0.858 ± 0.012
2,CC1CCCCC1 [methylcyclohexane],0.74 ± 0.011
3,CCCCCCCCCCCC [dodecane],1.49 ± 0.01
4,CCCCCCCCCCCCCCCC [hexadecane],3.47 ± 0.02

# Same assay, conditions: 293.15 K; 102 kPa; Liquid; Single path-length method
row,SMILES,speed of sound [m/s]
1,CCC1CCCCC1 [ethylcyclohexane],1292.9 ± 0.6
2,CC1CCCCC1 [methylcyclohexane],1236.5 ± 0.6
3,CCCCCCCCCCCC [dodecane],1297.7 ± 0.7
4,CCCCCCCCCCCCCCCC [hexadecane],1357.4 ± 0.6

# Same assay, conditions: 293.15 K; 102 kPa; Liquid; Vibrating tube method
row,SMILES,mass density [kg/m3]
1,CCC1CCCCC1 [ethylcyclohexane],787.98 ± 0.2
2,CC1CCCCC1 [methylcyclohexane],769.3 ± 0.2
3,CCCCCCCCCCCC [dodecane],748.73 ± 0.7
4,CCCCCCCCCCCCCCCC [hexadecane],773.37 ± 0.32

# Same assay, conditions: 294.6 K, Pendant drop shape
row,SMILES,surface tension liquid-gas [mN/m]
1,CCCCCCCCCCCC [dodecane],25 ± 0.5

# Same assay, conditions: 295.6 K, Pendant drop shape
row,SMILES,surface tension liquid-gas [mN/m]
1,CCC1CCCCC1 [ethylcyclohexane],25.3 ± 0.5

# Same assay, conditions: 296.1 K, Pendant drop shape
row,SMILES,surface tension liquid-gas [mN/m]
1,CCCCCCCCCCCCCCCC [hexadecane],26.9 ± 0.7

# Same assay, conditions: 298.15 K; 102 kPa; Liquid; Concentric cylinders viscometry
row,SMILES,viscosity [mPa·s]
1,CC1CCCCC1 [methylcyclohexane],0.685 ± 0.011
2,CCCCCCCCCCCC [dodecane],1.36 ± 0.01
3,CCCCCCCCCCCCCCCC [hexadecane],3.06 ± 0.02

# Same assay, conditions: 298.15 K; 102 kPa; Liquid; Single path-length method
row,SMILES,speed of sound [m/s]
1,CC1CCCCC1 [methylcyclohexane],1214.5 ± 0.6
2,CCCCCCCCCCCCCCCC [hexadecane],1338.6 ± 0.6

# Same assay, conditions: 298.15 K; 102 kPa; Liquid; Vibrating tube method
row,SMILES,mass density [kg/m3]
1,CC1CCCCC1 [methylcyclohexane],764.99 ± 0.21
2,CCCCCCCCCCCC [dodecane],745.11 ± 0.7
3,CCCCCCCCCCCCCCCC [hexadecane],769.89 ± 0.32

# Same assay, conditions: 303.15 K; 102 kPa; Liquid; Concentric cylinders viscometry
row,SMILES,viscosity [mPa·s]
1,CCC1CCCCC1 [ethylcyclohexane],0.725 ± 0.011
2,CC1CCCCC1 [methylcyclohexane],0.633 ± 0.011
3,CCCCCCCCCCCC [dodecane],1.26 ± 0.01
4,CCCCCCCCCCCCCCCC [hexadecane],2.76 ± 0.02

# Same assay, conditions: 303.15 K; 102 kPa; Liquid; Single path-length method
row,SMILES,speed of sound [m/s]
1,CCC1CCCCC1 [ethylcyclohexane],1249.9 ± 0.6
2,CC1CCCCC1 [methylcyclohexane],1192.3 ± 0.6
3,CCCCCCCCCCCC [dodecane],1259 ± 0.7
4,CCCCCCCCCCCCCCCC [hexadecane],1319.7 ± 0.6

# Same assay, conditions: 303.15 K; 102 kPa; Liquid; Vibrating tube method
row,SMILES,mass density [kg/m3]
1,CCC1CCCCC1 [ethylcyclohexane],779.91 ± 0.2
2,CC1CCCCC1 [methylcyclohexane],760.64 ± 0.21
3,CCCCCCCCCCCC [dodecane],741.77 ± 0.7
4,CCCCCCCCCCCCCCCC [hexadecane],766.43 ± 0.32

# Same assay, conditions: 313.15 K; 102 kPa; Liquid; Concentric cylinders viscometry
row,SMILES,viscosity [mPa·s]
1,CCC1CCCCC1 [ethylcyclohexane],0.649 ± 0.011
2,CC1CCCCC1 [methylcyclohexane],0.572 ± 0.011
3,CCCCCCCCCCCC [dodecane],1.06 ± 0.01
4,CCCCCCCCCCCCCCCC [hexadecane],2.23 ± 0.02

# Same assay, conditions: 313.15 K; 102 kPa; Liquid; Single path-length method
row,SMILES,speed of sound [m/s]
1,CCC1CCCCC1 [ethylcyclohexane],1208 ± 0.6
2,CC1CCCCC1 [methylcyclohexane],1149.2 ± 0.6
3,CCCCCCCCCCCC [dodecane],1221.1 ± 0.7
4,CCCCCCCCCCCCCCCC [hexadecane],1282.9 ± 0.6

# Same assay, conditions: 313.15 K; 102 kPa; Liquid; Vibrating tube method
row,SMILES,mass density [kg/m3]
1,CCC1CCCCC1 [ethylcyclohexane],771.79 ± 0.2
2,CC1CCCCC1 [methylcyclohexane],751.92 ± 0.21
3,CCCCCCCCCCCC [dodecane],734.87 ± 0.7
4,CCCCCCCCCCCCCCCC [hexadecane],759.51 ± 0.32

# Same assay, conditions: 323.15 K; 102 kPa; Liquid; Concentric cylinders viscometry
row,SMILES,viscosity [mPa·s]
1,CCC1CCCCC1 [ethylcyclohexane],0.572 ± 0.011
2,CC1CCCCC1 [methylcyclohexane],0.489 ± 0.011
3,CCCCCCCCCCCC [dodecane],0.925 ± 0.012
4,CCCCCCCCCCCCCCCC [hexadecane],1.86 ± 0.01

# Same assay, conditions: 323.15 K; 102 kPa; Liquid; Single path-length method
row,SMILES,speed of sound [m/s]
1,CCC1CCCCC1 [ethylcyclohexane],1166.9 ± 0.6
2,CC1CCCCC1 [methylcyclohexane],1106.9 ± 0.6
3,CCCCCCCCCCCC [dodecane],1183.9 ± 0.7
4,CCCCCCCCCCCCCCCC [hexadecane],1247.1 ± 0.6

# Same assay, conditions: 323.15 K; 102 kPa; Liquid; Vibrating tube method
row,SMILES,mass density [kg/m3]
1,CCC1CCCCC1 [ethylcyclohexane],763.6 ± 0.21
2,CC1CCCCC1 [methylcyclohexane],743.13 ± 0.21
3,CCCCCCCCCCCC [dodecane],726.88 ± 0.7
4,CCCCCCCCCCCCCCCC [hexadecane],752.6 ± 0.32

# Same assay, conditions: 333.15 K; 102 kPa; Liquid; Concentric cylinders viscometry
row,SMILES,viscosity [mPa·s]
1,CCC1CCCCC1 [ethylcyclohexane],0.504 ± 0.011
2,CC1CCCCC1 [methylcyclohexane],0.44 ± 0.011
3,CCCCCCCCCCCC [dodecane],0.795 ± 0.012
4,CCCCCCCCCCCCCCCC [hexadecane],1.56 ± 0.01

# Same assay, conditions: 333.15 K; 102 kPa; Liquid; Single path-length method
row,SMILES,speed of sound [m/s]
1,CCC1CCCCC1 [ethylcyclohexane],1126.9 ± 0.6
2,CC1CCCCC1 [methylcyclohexane],1065.7 ± 0.6
3,CCCCCCCCCCCC [dodecane],1147.6 ± 0.7
4,CCCCCCCCCCCCCCCC [hexadecane],1212.2 ± 0.6

# Same assay, conditions: 333.15 K; 102 kPa; Liquid; Vibrating tube method
row,SMILES,mass density [kg/m3]
1,CCC1CCCCC1 [ethylcyclohexane],755.36 ± 0.21
2,CC1CCCCC1 [methylcyclohexane],734.25 ± 0.21
3,CCCCCCCCCCCC [dodecane],719.53 ± 0.7
4,CCCCCCCCCCCCCCCC [hexadecane],745.69 ± 0.32
